# The source made the active and inactive calls. No cut-off for these calls is given here.
# Legend:
# [1] = target: 5-hydroxytryptamine receptor 6 (Homo sapiens, UniProt P50406); assay: Binding affinity to human recombinant 5HT6 receptor expressed in CHO cells coexpressing pCRE-Luc assessed as inhibition of serotonin-induced increase in cAMP level by luciferase reporter gene assay; format: cell-based
# [2] = Clearance in Wistar rat at 10 mg/kg, iv; format: ADME, organism-based; parameters: dose 10 mg/kg, route intravenous; conditions: in vivo
# [3] = Clearance in Wistar rat at 10 mg/kg, po; format: ADME, organism-based; parameters: dose 10 mg/kg, route oral; conditions: in vivo
# [4] = Metabolic stability in human liver microsomes at […] after 30 mins; format: ADME, Microsome; conditions: read-out: Stability
# Rattus norvegicus [5] = assay: Apparent volume of distribution in Wistar rat at 10 mg/kg, po; format: ADME, organism-based; parameters: dose 10 mg/kg, route oral; conditions: in vivo
# [6] = Metabolic stability in Wistar rat liver microsomes at […] after 30 mins; format: ADME, Microsome; conditions: read-out: Stability
# [7] = Apparent volume of distribution in Wistar rat at 10 mg/kg, iv; format: ADME, organism-based; parameters: dose 10 mg/kg, route intravenous; conditions: in vivo, read-out: Vz
# [8] = AUCt in Wistar rat at 10 mg/kg, iv; format: ADME, organism-based; parameters: dose 10 mg/kg, route intravenous; conditions: plasma
# Cytochrome P450 2D6 = Cytochrome P450 2D6 (Homo sapiens, UniProt P10635); assay: Inhibition of human CY2D6
# [9] = Half life in Wistar rat at 10 mg/kg, iv; format: ADME, organism-based; parameters: dose 10 mg/kg, route intravenous; conditions: in vivo
# [10] = Cmax in Wistar rat at 10 mg/kg, po; format: ADME, organism-based; parameters: dose 10 mg/kg, route oral; conditions: in vivo
# [11] = Half life in Wistar rat at 10 mg/kg, po; format: ADME, organism-based; parameters: dose 10 mg/kg, route oral; conditions: in vivo
# [12] = AUCt in Wistar rat at 10 mg/kg, po; format: ADME, organism-based; parameters: dose 10 mg/kg, route oral; conditions: plasma
# [13] = Cmax in Wistar rat at 10 mg/kg, iv; format: ADME, organism-based; parameters: dose 10 mg/kg, route intravenous; conditions: in vivo
# Rattus norvegicus [14] = organism: Rattus norvegicus; assay: Cognitive enhancing effect against scopolamine-induced acquisition memory deficit in Wistar rat by morris water maze test; format: functional, organism-based
# Cytochrome P450 3A4 = Cytochrome P450 3A4 (Homo sapiens, UniProt P08684); assay: Inhibition of human CY3A4
# [15] = Ratio of drug level brain to plasma in Wistar rat; format: ADME
# Rattus norvegicus [16] = assay: Cognitive enhancing effect in Wistar rat at 10 mg/kg, po by novel object recognition test; format: functional, organism-based; parameters: dose 10 mg/kg
# [17] = Oral bioavailability in Wistar rat at 10 mg/kg; format: ADME, organism-based; conditions: in vivo
# Chain of 5-hydroxytryptamine receptor 6 (P50406 whole entry): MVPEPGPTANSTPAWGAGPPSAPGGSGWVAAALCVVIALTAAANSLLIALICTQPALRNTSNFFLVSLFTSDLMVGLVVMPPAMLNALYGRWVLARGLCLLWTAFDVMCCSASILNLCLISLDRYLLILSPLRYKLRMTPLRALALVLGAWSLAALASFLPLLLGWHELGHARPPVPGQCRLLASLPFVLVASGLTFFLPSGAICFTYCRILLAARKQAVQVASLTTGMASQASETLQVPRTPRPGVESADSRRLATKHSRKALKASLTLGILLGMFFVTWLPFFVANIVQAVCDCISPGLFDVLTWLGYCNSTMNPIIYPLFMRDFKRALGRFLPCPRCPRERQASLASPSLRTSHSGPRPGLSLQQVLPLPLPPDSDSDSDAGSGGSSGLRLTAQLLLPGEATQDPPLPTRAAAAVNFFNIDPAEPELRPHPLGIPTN
# Chain of Cytochrome P450 2D6 (P10635 whole entry): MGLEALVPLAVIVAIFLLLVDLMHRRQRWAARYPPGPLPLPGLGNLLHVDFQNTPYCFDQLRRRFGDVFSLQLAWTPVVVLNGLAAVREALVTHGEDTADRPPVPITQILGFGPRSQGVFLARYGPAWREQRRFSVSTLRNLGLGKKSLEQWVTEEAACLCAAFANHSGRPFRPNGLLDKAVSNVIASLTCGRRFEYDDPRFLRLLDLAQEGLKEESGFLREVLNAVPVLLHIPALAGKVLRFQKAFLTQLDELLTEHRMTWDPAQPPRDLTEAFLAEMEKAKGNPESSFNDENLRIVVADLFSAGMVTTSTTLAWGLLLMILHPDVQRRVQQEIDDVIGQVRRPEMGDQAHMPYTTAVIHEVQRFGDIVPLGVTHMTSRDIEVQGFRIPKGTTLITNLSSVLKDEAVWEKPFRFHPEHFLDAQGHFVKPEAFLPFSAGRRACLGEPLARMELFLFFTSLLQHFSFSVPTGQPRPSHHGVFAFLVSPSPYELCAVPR
# Chain of Cytochrome P450 3A4 (P08684 whole entry): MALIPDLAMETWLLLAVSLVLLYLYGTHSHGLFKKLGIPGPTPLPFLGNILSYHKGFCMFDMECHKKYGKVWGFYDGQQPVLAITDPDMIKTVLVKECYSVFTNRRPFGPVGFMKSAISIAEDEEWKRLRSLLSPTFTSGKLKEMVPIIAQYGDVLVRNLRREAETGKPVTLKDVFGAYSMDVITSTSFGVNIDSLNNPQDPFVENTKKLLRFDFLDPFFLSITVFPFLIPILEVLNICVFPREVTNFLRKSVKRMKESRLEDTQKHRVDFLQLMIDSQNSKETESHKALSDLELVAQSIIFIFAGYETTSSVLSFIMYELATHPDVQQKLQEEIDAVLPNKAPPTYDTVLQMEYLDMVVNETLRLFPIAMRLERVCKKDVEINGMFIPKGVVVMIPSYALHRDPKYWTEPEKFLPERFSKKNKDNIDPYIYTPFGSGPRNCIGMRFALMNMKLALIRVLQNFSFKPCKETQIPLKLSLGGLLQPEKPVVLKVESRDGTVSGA
Compound,Kb [1],further results
COc1ccc(S(=O)(=O)Nc2cc(C)ccc2OC)cc1NC1CCN(C)CC1,0.02 nM,–
COc1ccc(S(=O)(=O)NCc2ccccc2)cc1N(C)C1CCN(C)CC1,3.9 nM,–
CN1CCC(Nc2cccc(S(=O)(=O)Nc3ccc(Br)cc3F)c2)CC1,12.2 nM,–
COc1ccc(S(=O)(=O)Nc2ccccc2Br)cc1NC1CCNCC1,0.6 nM,–
COc1ccc(NS(=O)(=O)c2cccc(NC3CCN(C)CC3)c2)c(OC)c1,10 nM,–
COc1ccc(S(=O)(=O)Nc2ccccc2Cl)cc1NC1CCN(C)CC1,0.584 nM,–
COc1ccc(S(=O)(=O)NCc2ccccc2)cc1N(C)C1CCNCC1,2.65 nM,–
COc1ccc(OC)c(NS(=O)(=O)c2cccc(NC3CCN(C)CC3)c2)c1,16 nM,–
COc1ccc(S(=O)(=O)Nc2ccccc2Cl)cc1NC1CCNCC1,0.48 nM,–
COc1ccc(S(=O)(=O)NCCc2ccccc2Cl)cc1NC1CCN(C)CC1,26 nM,–
CCc1ccc(S(=O)(=O)Nc2ccccc2Br)cc1NC1CCNCC1,0.1 nM,–
Cc1ccc(NS(=O)(=O)c2cccc(NC3CCN(C)CC3)c2)c(C)c1,> 10000 nM,–
COc1ccc(S(=O)(=O)Nc2ccccc2Br)cc1NC1CCN(C)CC1,0.296 nM,–
COc1ccc(S(=O)(=O)Nc2ccccc2Cl)cc1N(C)C1CCNCC1,0.86 nM,–
COc1ccc(S(=O)(=O)NCc2ccccc2)cc1NC1CCNCC1,4.26 nM,–
COc1ccc(S(=O)(=O)Nc2ccccc2)cc1NC1CCN(C)CC1,1.23 nM,–
COc1ccc(S(=O)(=O)NCCc2ccccc2Br)cc1NC1CCN(C)CC1,38 nM,–
COc1ccc(S(=O)(=O)Nc2cc(Cl)cc(Cl)c2OC)cc1NC1CCN(C)CC1,0.02 nM,"clearance [2]: 65.5 mL/min/kg; CL/F [3]: 207 mL/min/kg; remaining at 0.5 h, […] [4]: 21%; Vz (Rattus norvegicus [5]): 34.332 L/kg; remaining at 0.5 h, […] [6]: 77%; Vd [7]: 16.9 L/kg; AUC(0-t) [8]: 2530 ng·h/mL; IC50 (Cytochrome P450 2D6): 41700 nM; half-life [9]: 2.96 h; Cmax [10]: 536 ng/mL; half-life [11]: 1.72 h; AUC(0-t) [12]: 941 ng·h/mL; Cmax [13]: 1920 ng/mL; Activity (Rattus norvegicus [14]): Active; IC50 (Cytochrome P450 3A4): 8440 nM; Kp [15]: 0.08; Activity (Rattus norvegicus [16]): Active; bioavailability [17]: 38%"
CCc1ccc(S(=O)(=O)Nc2cc(Cl)cc(Cl)c2OC)cc1NC1CCN(C)CC1,1.65 nM,–
CN1CCC(Nc2cccc(S(=O)(=O)Nc3c(F)cc(F)cc3Br)c2)CC1,> 10000 nM,–
COc1ccc(NS(=O)(=O)c2ccccc2OC(F)F)cc1N1CCNCC1,–,Ki [1]: < 10 nM
CCN(c1cc(S(=O)(=O)Nc2ccccc2)ccc1OC)C1CCN(C)CC1,18.6 nM,–
CCc1ccc(S(=O)(=O)Nc2ccccc2Br)cc1NC1CCN(C)CC1,0.19 nM,"remaining at 0.5 h, […] [4]: 26%; remaining at 0.5 h, […] [6]: 99%; IC50 (Cytochrome P450 2D6): > 45000 nM; IC50 (Cytochrome P450 3A4): 9620 nM"
COc1ccc(S(=O)(=O)Nc2ccccc2Br)cc1N(C)C1CCNCC1,0.2 nM,–
COc1ccc(S(=O)(=O)NCc2ccccc2)cc1NC1CCN(C)CC1,3.36 nM,–
Cc1ccc(S(=O)(=O)Nc2ccccc2Br)cc1NC1CCN(C)CC1,1.31 nM,–
